Test system: Monilinia fructicola
Test: Cherry inoculation assays 1 and 3: Monilinia fruit rot of ‘Sweet Valentine’ cherries, dip treatment
Type: in vivo
Conditions: Assay 1, cherries, cumulative after 13 days; Nil 50%; reductions not significant
Procedure: Fruit-based screening assays were conducted in laboratories at the Plant and Food Research Ruakura Research Centre, Hamilton, New Zealand (PFR). PFR assays focused on dip treatment application of YBCA5 and fungicide controls.
Fruit for Monilinia fructicola and Botrytis spp. inoculation assays were carried out on sweet cherries (Prunus avium ‘Sweet Valentine’) that were picked at the harvest mature stage and sourced from the PFR Clyde Research Orchard in Central Otago on 8 Jan. 2016 for fruit based assays 1 and 2. A second harvest was carried out on 13 Jan. 2016 for fruit based assays 3 and 4.
Each cherry was then subjected to a double wash process. Wash one consisted of 10 minutes in tap water on a rotary shaker (110 rpm) followed by a five minute wash in SDW (Wash 2). […]
A Monilinia fructicola culture (isolate code MFGQ3), which had been originally isolated from an infected peach tree located in the Hamilton region during 1998, was used for the spray inoculation assays included in this section (Ruakura based assay). […] This stock suspension was then filtered using a 70 μm cell strainer (to remove mycelial fragments), the concentration determined using a haemocytometer and then adjusted, by dilution with SDW+Tw 80 (0.05%) to a final concentration of 1×10^4 conidia/mL. […]

Compound: CC(C)NC(=O)N1CC(=O)N(c2cc(Cl)cc(Cl)c2)C1=O [iprodione]
- incidence of Monilinia fruit rot: 22%
